Results on two molecules are retold here after patent publication US20220362394A1, “ANTI-BCMA ANTIBODY CONJUGATES” (SUTRO BIOPHARMA, INC., priority 2019, published 2022).

In the assay the test system is MM.1S multiple myeloma cells. Description: Disseminated MM.1S multiple myeloma model. It is filed as in vivo, NSG mice. Particulars: Example 11. As to the method:
Female NOD severe combined immune deficient (SCID) gamma (NSG) mice 8-9 weeks of age were inoculated with 5×10^6 multiple myeloma MM.1S cells into the tail vein. Randomization by body weight and start of treatment was initiated 7 days post tumor inoculation. The treatment groups are outlined in Table 18. All investigational test articles were formulated in 10 mM citrate pH 6.0, 10% sucrose. Groups 1-10 (n=6/group) were monitored for survival endpoint characterized by >20% body weight loss and clinical signs including lethargy, hind limb paralysis or moribundity. Groups 11-20 (n=3/group) were used for bone marrow harvest and analysis of tumor burden on day 28 post tumor cell inoculation. For all groups, body weights were monitored 1-2×/week.
Tumor burden was assessed and quantified by detection of hCD138 positive (hCD138+) cells in the bone marrow. Bone marrow cells from mouse femur and tibia were pooled and assessed for human CD138+ expression using the Alexa Fluor 647 mouse anti-human CD138 clone MI15 (BD Biosciences #562097) according to the manufacturer's protocol. […] Data was analyzed using Flowjo (Tree Star, Inc., Ashland, Oreg.).
Mean survival, survival delay, and tumor burden, during and at the study endpoint, were analyzed using a one-way analysis of variance (ANOVA) with Dunnett's multiple comparison test. […]

For the molecule `CC(C)C[C@H](NC(=O)[C@H](Cc1ccccc1)NC(=O)c1cnccn1)B(O)O` [Velcade], the mean survival (0.8 mg/kg q7dx2 IP) came to 40.6 days.

Take “Daratumumab: MM standard of care agent, clinical grade”: the “effect on survival compared to vehicle control” value (3 or 10 mg/kg single IP) is “no significant effect on survival”.
